Here are results for four molecules from the NIST ThermoML archive (doi:10.1021/je030147g).

Where “and” joins values, the source holds several entries; their conditions need not be identical. Equal values may be shown once. ± gives the expanded uncertainty stated by the source.

The conditions of data set [1]: 101.33 kPa, Liquid.
Data set [2] can be described thus: refractive index (Na D-line) (dimensionless). Particulars: 101.33 kPa, Liquid.

Turning to `C1CCOC1` [tetrahydrofuran], the mass density turned out to be 882.9 ± 0.8 kg/m3 in data set [1] (298.15 K), 877.5 ± 0.9 kg/m3 in data set [1] (303.15 K) and 871.2 ± 0.9 kg/m3 in data set [1] (308.15 K). The speed of sound in data set [1] (298.15 K) worked out at 1288 ± 6 m/s. The viscosity was 0.485 ± 0.014 mPa·s in data set [1] (298.15 K), 0.46 ± 0.013 mPa·s in data set [1] (303.15 K) and 0.439 ± 0.013 mPa·s in data set [1] (308.15 K). The refractive index is 1.4049 ± 0.0012 in data set [2] (298.15 K), 1.4026 ± 0.0012 in data set [2] (303.15 K) and 1.3998 ± 0.0012 in data set [2] (308.15 K).
With `CCCCN(CCCC)CCCC` [tributylamine], the mass density is 773.9 ± 0.8 kg/m3 and 773.3 ± 0.8 kg/m3 in data set [1] (298.15 K); 769.2 ± 0.8 kg/m3 in data set [1] (303.15 K); 765.7 ± 0.9 kg/m3 in data set [1] (308.15 K). Besides, in data set [1] (298.15 K), the speed of sound is 1262 ± 6 m/s. The viscosity was 1.239 ± 0.03 mPa·s in data set [1] (298.15 K); 1.123 ± 0.028 mPa·s and 1.124 ± 0.028 mPa·s in data set [1] (303.15 K); 1.028 ± 0.026 mPa·s and 1.02 ± 0.026 mPa·s and 1.103 ± 0.11 mPa·s in data set [1] (308.15 K). The refractive index in data set [2] (298.15 K) is 1.4276 ± 0.0013; in data set [2] (303.15 K), 1.4255 ± 0.0013 and 1.4254 ± 0.0013; in data set [2] (308.15 K), 1.4228 ± 0.0013.
As to `ClC=C(Cl)Cl` [trichloroethene], the mass density was determined as 1456.7 ± 1.6 kg/m3 in data set [1] (298.15 K), 1447.1 ± 1.6 kg/m3 in data set [1] (303.15 K) and 1439.5 ± 1.7 kg/m3 in data set [1] (308.15 K). Besides, the speed of sound in data set [1] (298.15 K) stood at 1028 ± 5 m/s. The viscosity in data set [1] (298.15 K) was determined as 0.595 ± 0.016 mPa·s; in data set [1] (303.15 K) it was 0.571 ± 0.016 mPa·s; in data set [1] (308.15 K) it was 0.549 ± 0.015 mPa·s. The values for the refractive index in data set [2] (298.15 K), in data set [2] (303.15 K) and in data set [2] (308.15 K) were 1.4752 ± 0.0012, 1.4722 ± 0.0012 and 1.469 ± 0.0012, respectively.
On to `CCN(CC)CC` [triethylamine], for which the mass density is given as 723.3 ± 0.7 kg/m3 in data set [1] (298.15 K), 718.6 ± 0.7 kg/m3 in data set [1] (303.15 K) and 713.7 ± 0.7 kg/m3 in data set [1] (308.15 K). In addition, in data set [1] (298.15 K), the speed of sound is reported as 1123 ± 5 m/s. Also, the viscosity in data set [1] (298.15 K) came out at 0.367 ± 0.011 mPa·s; in data set [1] (303.15 K), 0.349 ± 0.011 mPa·s; in data set [1] (308.15 K) it was 0.332 ± 0.01 mPa·s. Also, the refractive index came out at 1.3992 ± 0.0012 in data set [2] (298.15 K), 1.3958 ± 0.0012 in data set [2] (303.15 K) and 1.3929 ± 0.0012 in data set [2] (308.15 K).

In general, mass density refers to the mass of a sample divided by its volume. As usually defined, the speed of sound is how fast a sound wave travels through the sample. For orientation: viscosity means the internal friction of a fluid under shear. A word on the refractive index: it is the speed of light in vacuum divided by its phase velocity in the sample.
